From patent US20130143902A1, “COMPOSITIONS AND METHODS OF TREATING A PROLIFERATIVE DISEASE WITH A QUINAZOLINONE DERIVATIVE” (GILEAD CALISTOGA LLC, priority 2011, published 2013)
pEC50: −log10 of the molar value. Where “and” joins values, the source holds several entries; their conditions need not be identical. Equal entries are not always repeated.

Experiments:
OVCAR-3 = test: pAkt pathway inhibition, OVCAR-3; type: cell-based; conditions: Homo sapiens; OVCAR-3, Ovarian
T47D = test: pAkt pathway inhibition, T47D; type: cell-based; conditions: Homo sapiens, Breast
786-0 [1] = test: pAkt pathway inhibition, 786-0; type: cell-based; conditions: Homo sapiens; 786-0, Renal
RXF-393 = test: pAkt pathway inhibition, RXF-393; type: cell-based; conditions: Homo sapiens; RXF-393, Renal
[2] = system: Akt/PKB phosphorylation in primary T-ALL tumors; test: Akt/PKB phosphorylation in primary T-ALL tumors; type: cell-based, human; conditions: primary T-ALL tumors from four patients
Method: Cell lysates (from cell lines or thymocytes) were prepared on ice in M-PER Mammalian Protein Extraction reagent (Pierce) containing a cocktail of protease and phosphatase inhibitors as described in Swat, W. et al., Essential role of PI3 Kdelta and PI3 Kgamma in thymocyte survival, Blood 107, 2415-2422 (2006). Equal amounts of total protein from lysates were separated using SDS-PAGE, transferred to PVDF membrane (Immobilon-P, Millipore). Membranes were incubated overnight incubation with appropriate primary antibodies. Bound antibodies were visualized with HRP-conjugated secondary antibodies and ECL chemistry (SuperPico West, Pierce).

[3] = system: pAkt in B Cell Malignancies; test: pAkt activity, B cell malignancies; type: cell-based; conditions: N = 7
Text: Cellular viability and pAkt activity were used to determine effects of Compounds A, C, and D in solid tumor, B-cell malignancies, and T-cell malignancies.

PI3K p110β = target: T1, PI3K p110β (Mus musculus, UniProt Q8BTI9); test: Cellular p110β signaling: LPA-stimulated MEFs, pAkt Western blot; type: cell-based, murine; conditions: EC50 p110β, cellular assay
T1 construct: endogenous in cells; host or cells: murine embryo fibroblasts (MEFs)
Method: To analyze PI3K p110α and p110β signaling, murine embryo fibroblast (MEFs) were removed from FBS and starved for 2 hours followed by stimulation with 10 ng/mL of PDGF (Cell Signaling Technologies, Danvers, Mass.) or 10 μM of LPA (Echelon, Salt Lake City, Utah) for 10 minutes at 37° C., respectively. After washing once in cold phosphate-buffered saline (PBS), the cell pellet was resuspended in 1× cell lysis buffer (Cell Signaling Technologies) supplemented with mini protease inhibitor mix (Roche, Indianapolis, Ind.), phosphate inhibitor cocktail set I and II (Calbiochem, San Diego, Calif.) for 15 minutes on ice. Whole-cell lysates were obtained by centrifugation at 16,000 g for 10 minutes at 4° C., and the soluble protein was analyzed by Western blotting for Akt and pAkt levels. To analyze PI3K p110δ and p110γ signaling, basophil activation was measured in isolated PBMC or whole blood using the Flow2 CAST kit according to the manufacture's standardized methods (Buhlman Laboratories AG, Switzerland). Briefly, p110δ was activated with anti-FCεRI and p110γ was activated with fMLP (2 μM) in the absence or presence of compounds. To monitor the basophil cell population and cellular activation, anti-CD63-FITC and anti-CCR3-PE antibodies were added to each sample. Cells were fixed and analyzed on a FC500 MPL flow cytometer (Beckman Coulter, Brea, Calif.).

LN18 [4] = test: pAkt pathway inhibition, LN18; type: cell-based; conditions: Homo sapiens, LN-18; LN18, Glioma
786-0 [5] = test: Viability (AlamarBlue), 786-0; type: cell-based; conditions: Homo sapiens; 786-0, Renal
Method: (§1) For primary T-ALL samples, cell viability was determined using the BD Cell Viability kit (BD Biosciences) and fluorescent counting beads as previously described in Armstrong, F. et al., NOTCH is a key regulator of human T-cell acute leukemia initiating cell activity, Blood 113, 1730-1740 (2009). Cells were plated with MS5-DL1 stroma cells. After 72 hours following treatment, cells were harvested and stained with an APC-conjugated anti-human CD45 according to the manufacturer's instructions. For solid tumor cell lines, cellular viability was determined using the AlamarBlue kit (Invitrogen). About 10,000 cells in 100 μL of media containing 10% FBS were aliquoted into individual wells of a 96-well plate and treated with vehicle (DMSO) or compound in triplicate for 24 hours. Ten μL of AlamarBlue reagent was added to each well and incubated for 4 hours at 37° C. with 5% CO2. Fluorescence was measured with an excitation wavelength at 530 to 560 nm and emission wavelength at 590 nm using Spectramax M5 plate reader (Molecular Devices, Sunnyvale, Calif.).

IGROV-1 = test: pAkt pathway inhibition, IGROV-1; type: cell-based; conditions: Homo sapiens; IGROV-1, Ovarian
LN18 [6] = test: Viability (AlamarBlue), LN18; type: cell-based; conditions: Homo sapiens, LN-18; LN18, Glioma
Method: as §1

PC3 = test: pAkt pathway inhibition, PC3; type: cell-based; conditions: Homo sapiens, PC-3; PC3, Prostate
PTEN null T-ALL = test: Diseased Lck/PTEN^fl/fl mice with PTEN null T-ALL; type: in vivo; conditions: 30 mg/kg BID; for leukemia cells: about 125 million at Day 0
Method: Mouse whole blood was incubated with appropriate antibodies and processed using the BD Bioscience BD FACS Lysing Solution according to the manufacturer's instructions. Immediately after lysis, cells were permeabilized with 0.025% Tween-20 in lysing solution for 15 minutes, then incubated with Ki67 antibodies. Single cell suspensions of thymocytes were isolated and stained with the appropriate antibodies as described in Swat, W. et al., Essential role of PI3 Kdelta and PI3 Kgamma in thymocyte survival, Blood 107, 2415-2422 (2006).
All mice were kept in specific pathogen-free facility at Columbia University Medical Center. All procedures were performed in accordance with the guidelines of the Institutional Animal Care and Use Committee. Lck-cre, NOD.Cg-Prkdc^scid Il2rg^tmlWjl/Sz and Gt(ROSA)26Sor^tml(Luc)Kael/J mice were obtained from the Jackson Laboratory. Mice deficient for PTEN in the T-cell lineage were generated by crossing Lck-cre with floxed PTEN. P110γ^−/− and p110δ^−/− mice as described in Swat, W. et al., Essential role of PI3 Kdelta and PI3 Kgamma in thymocyte survival, Blood 107, 2415-2422 (2006). The animals were intercrossed with Lck-cre/PTEN^fl/fl animals to generate mice homozygous mutant for either p110γ or p110δ and PTEN or homozygous mutant for p110γ, 110δ, and PTEN.
Lck/PTEN^fl/fl mice were crossed with the mice having a luciferase cDNA, preceded by a LoxP-stop-LoxP cassette was introduced into the ubiquitously expressed ROSA26 locus. […] The results are consistent with the reduction in whole blood cells and CD4 single positive population of tumor cells.
Lck/PTEN^fl/fl mice having T-ALL were administered with Compound B at an oral dose of 10 mg/kg every 8 hours or DMSO vehicle for a period of 7 days. […] Compound B extended the median survival to 45 days compared to 7.5 days for the vehicle group (data not shown).
Diseased Lck/PTEN^fl/fl mice (i.e. Lck/PTEN^fl/fl mice diagnosed with T-ALL) were treated with Compounds B for a period of 7 days. Mice were examined for sequential blood counts, peripheral smears, and flow cytometric analyses. […] Forward scatter (FSC) and Ki67 staining were indicators of cell size and proliferation, respectively; and apoptosis was detected by assessing the […] population after PI staining.
PTEN^fl/fl mice were crossed with the mice having a luciferase cDNA, preceded by a LoxP-stop-LoxP cassette was introduced into the ubiquitously expressed ROSA26 locus. Progeny were then crossed with Lck-cre transgenics to delete PTEN in T-cell progenitors and induce expression of luciferase. Imaging on T-ALL tumor bearing mice was performed at Day 0 and 4 after treatment of Compound B or vehicle.

T1 sequence (Q8BTI9 whole entry): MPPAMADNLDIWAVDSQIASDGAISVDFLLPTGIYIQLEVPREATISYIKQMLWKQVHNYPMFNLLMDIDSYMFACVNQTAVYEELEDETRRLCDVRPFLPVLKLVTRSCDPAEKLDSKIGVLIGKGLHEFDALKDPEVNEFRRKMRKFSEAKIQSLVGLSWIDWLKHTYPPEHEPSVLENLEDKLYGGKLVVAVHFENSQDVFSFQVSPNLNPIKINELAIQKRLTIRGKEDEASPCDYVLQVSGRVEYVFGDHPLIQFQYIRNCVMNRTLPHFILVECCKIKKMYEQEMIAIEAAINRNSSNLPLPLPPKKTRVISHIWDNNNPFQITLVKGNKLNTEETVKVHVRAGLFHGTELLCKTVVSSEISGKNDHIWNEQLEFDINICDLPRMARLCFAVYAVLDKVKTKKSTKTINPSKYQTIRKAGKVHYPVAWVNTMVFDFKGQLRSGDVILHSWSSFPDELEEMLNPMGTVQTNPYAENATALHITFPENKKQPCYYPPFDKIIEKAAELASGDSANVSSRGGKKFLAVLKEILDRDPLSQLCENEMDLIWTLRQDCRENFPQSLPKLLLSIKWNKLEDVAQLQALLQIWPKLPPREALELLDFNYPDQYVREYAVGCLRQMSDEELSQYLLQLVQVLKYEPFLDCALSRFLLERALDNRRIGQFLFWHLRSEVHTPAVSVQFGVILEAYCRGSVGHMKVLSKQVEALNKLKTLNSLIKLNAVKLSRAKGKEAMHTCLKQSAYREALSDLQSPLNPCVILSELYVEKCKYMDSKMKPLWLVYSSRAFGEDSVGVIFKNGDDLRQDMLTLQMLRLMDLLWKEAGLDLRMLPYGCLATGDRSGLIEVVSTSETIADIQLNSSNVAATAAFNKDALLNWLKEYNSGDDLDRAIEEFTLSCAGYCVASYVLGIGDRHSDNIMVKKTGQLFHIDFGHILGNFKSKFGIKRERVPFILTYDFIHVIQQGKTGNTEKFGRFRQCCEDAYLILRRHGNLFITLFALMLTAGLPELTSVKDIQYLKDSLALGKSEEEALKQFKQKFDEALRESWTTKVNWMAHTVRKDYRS
T1 sequence (P26450 whole entry partner): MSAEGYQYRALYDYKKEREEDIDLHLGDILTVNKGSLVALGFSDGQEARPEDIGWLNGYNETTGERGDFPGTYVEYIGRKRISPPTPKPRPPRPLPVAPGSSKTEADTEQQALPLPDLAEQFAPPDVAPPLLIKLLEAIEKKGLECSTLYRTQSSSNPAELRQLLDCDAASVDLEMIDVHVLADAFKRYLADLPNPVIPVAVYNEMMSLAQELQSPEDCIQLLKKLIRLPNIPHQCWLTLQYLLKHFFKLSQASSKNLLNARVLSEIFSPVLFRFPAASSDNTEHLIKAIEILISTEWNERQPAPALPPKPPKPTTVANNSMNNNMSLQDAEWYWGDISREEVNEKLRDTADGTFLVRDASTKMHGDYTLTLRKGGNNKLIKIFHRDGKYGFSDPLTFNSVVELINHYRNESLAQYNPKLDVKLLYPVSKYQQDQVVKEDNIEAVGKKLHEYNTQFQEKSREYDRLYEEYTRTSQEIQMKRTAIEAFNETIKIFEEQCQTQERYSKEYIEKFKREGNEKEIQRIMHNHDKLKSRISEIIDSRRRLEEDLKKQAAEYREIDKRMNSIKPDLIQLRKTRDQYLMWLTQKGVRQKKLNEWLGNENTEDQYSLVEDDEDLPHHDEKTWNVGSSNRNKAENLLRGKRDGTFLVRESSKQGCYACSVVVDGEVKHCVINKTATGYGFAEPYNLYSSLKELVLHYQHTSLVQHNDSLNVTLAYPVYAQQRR

CC(Nc1ncnc2[nH]cnc12)c1nc2cccc(Cl)c2c(=O)n1-c1ccccc1 (stereo not shown) [Compound A, 2-(1-(9H-purin-6-ylamino)ethyl)-5-chloro-3-phenylquinazolin-4(3H)-one]
EC50 (OVCAR-3): 647 nM
EC50 (T47D): 502 nM
EC50 (786-0 [1]): 44 nM
EC50 (RXF-393): 25 nM
Akt/PKB phosphorylation [2]: inhibition
pEC50 [3]: 6.74
pEC50 (PI3K p110β): ~6.57 and 6.57
EC50 (LN18 [4]): 10 nM
GI50 (786-0 [5]): 5000 nM
EC50 (IGROV-1): 10 nM
GI50 (LN18 [6]): 3500 nM
EC50 (PC3): 155 nM
CD3 levels (PTEN null T-ALL): reduced
leukemia cells (PTEN null T-ALL; Day 4): about 5.6 million
leukemia cells (PTEN null T-ALL; Day 7): about 4.2 million
white blood cells (PTEN null T-ALL; by Day 4): significant reduction
